Measurements: patent US20140323420A1, “REDUCING TRANSMISSION OF SEXUALLY TRANSMITTED INFECTIONS” (University of Rochester, priority 2011, published 2014)
“Also recorded” adds a separate entry of the source. Like-named read-outs stand apart in the source and are kept apart here. Values belong to the molecule of their own block, whether it stands above or below them.

How the values were obtained:
HIV-1IIIB [1] = test: Semen-mediated enhancement of HIV-1 IIIB infection, CEM cells; format: cell-based; details: HIV-1 IIIB preincubated with 50% semen, diluted 15 fold onto CEM cells
Experimental: (§1) After 10 minutes, the stocks were diluted 15 fold and incubated with CEM 5.25 cells.

[2] = system: cervical epithelial cell lines SiHa, A2En, 3EC1; format: cell-based, human
From the text: For a compound to be a legitimate HIV-1 microbicide candidate, it must not have toxic or inflammatory effects on the cervical […]. Loss of this protective layer leads to an increased ability for HIV-1 to cross the mucosal barrier, and inflammatory effects drive recruitment of HIV-1 target cells, further decreasing the natural barriers against successful transmission of HIV. […] To do this, the following cell lines were used: 1) SiHa cells, a cervical carcinoma cell line; 2) A2En cells, a primary cell-derived line from the endocervical […]; and 3) 3EC1 cells, a primary cell-derived line from the ectocervical […]. […] Viability was assessed at 24 h by using the resazurin cytotoxicity assay. Resazurin cytotoxicity data were confirmed by trypan blue counts of viable cells.

HIV-1IIIB [3] = test: SEVI-mediated enhancement of HIV-1 IIIB infection, CEM-M7 (CEM 5.25) cells, luciferase; format: cell-based; details: for Inhibition of SEVI-mediated enhancement of HIV-1 infection (luciferase): CEM cells, with SEVI fibrils, increasing concentrations
Experimental: After 2 h, the medium […] were replaced.

HIV-1 IIIB = test: Virus binding assay (p24), HIV-1 IIIB virions; format: cell-based; details: Jurkat cells; for Inhibition of SEVI-enhanced binding of HIV-1 virions to the cell surface (p24 ELISA): with SEVI, 90 min
Experimental: as §1

SEVI fibrils [4] = target: T1, SEVI fibrils (Homo sapiens, UniProt P15309); test: Fluorescence polarization: displacement of FITC-heparin from SEVI fibrils; format: binding; details: SEVI + 16 μg/ml FITC-heparin, 1 h room temperature
T1 construct: PAP248-286 peptide was synthesized by New England Peptide; purchased New England Peptide (Gardner, Mass.); host or cells: chemical synthesis
T1 sequence (P15309 248-286 limits assumed): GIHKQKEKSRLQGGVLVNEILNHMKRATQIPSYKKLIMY
Experimental: Samples were incubated 1 h at room temperature and read on a PerkinElmer Life Sciences Envision 2012 multilabel reader (PerkinElmer, Waltham, Mass.) at an excitation λ=480 nm and emission λ=535 nm. The horizontal and vertical polarized fluorescence intensities were recorded, and the calculated polarization was determined in millipolarization units.
Samples were incubated for 1 hour at room temperature and polarized fluorescence was measured.

[5] = system: cervical epithelial cell lines SiHa, A2En, 3EC1; format: cell-based, human; remark: listed apart in the source
Experimental: Cytokine and chemokine production was assessed at 12 h by ELISA (R&D systems). Cells were also treated with 0.1% nonoxynol-9 as a positive control for cytotoxicity and with 0.1 μg/ml FSL1, a synthetic diacylated lipoprotein derived from Mycoplasma salivarium (InvivoGen, San Diego, Calif.), as a positive control for chemokine production.
Nonoxynol-9 (non-9), a spermicide, was used as a positive control. […] Cell culture supernatants were then assessed for the presence of the inflammatory cytokines and chemokines Mip-3α (FIG. 5B), IL-8 (FIG. 16C), IL-1β, and TNF-α.

SEVI fibrils [6] = target: T1, SEVI fibrils; test: ThT fluorescence stability of preformed SEVI fibrils; details: 3 h incubation
From the text: After that time, fibrillar structures were examined by ThT fluorescence. ThT changes in fluorescence intensity when intercalated into the β-sheet structure common to amyloid fibrils; therefore, ThT fluorescence serves as a surrogate measure for fibrillar structure of SEVI and for the stability of SEVI fibrils.

HIV-1ADA [7] = test: Semen-mediated enhancement of HIV-1 ADA infection, CEM-M7 cells; format: cell-based
Experimental: After 15 min, the semen and virus mixture was diluted 1:15 into 5×10^4 CEM-M7 cells/well in a 96-well plate. Cells were washed after 1 h, and infection was assayed at 48 h as above.
As human semen has been reported to be toxic to cultured cells, a protocol that minimized this toxicity was used. Pooled human semen was added to HIV-1IIIB virus in a 1:1 dilution. After 15 min, this solution was added to cells at a 1:15 dilution for a final concentration of 3.3%.

[8] = target: T2, aggregated Alzheimer disease-related Aβ(1-42) peptides (Homo sapiens, UniProt P05067); test: Fluorescence binding assay of BTA-EG6 to aggregated Aβ(1-42) peptides; details: same fluorescence binding assay
T2 construct: aggregated Alzheimer disease-related Aβ(1-42) peptides
T2 sequence (P05067 672-713 limits assumed): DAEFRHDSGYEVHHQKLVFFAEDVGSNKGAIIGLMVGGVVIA
From the text: Error bars represent standard deviations from the mean.

SiHa cells = test: Semen-mediated chemokine release from SiHa cells (ELISA); format: cell-based; details: pooled human semen, 33 μg/ml BTA-EG6, 6 h
Experimental: (§2) Supernatant was collected at 6 and 24 h, and the production of the chemokines IL-8 and Mip-3α was measured by ELISA (R&D Systems). […] After 6 h, supernatants were collected, and the production of the chemokines IL-8 and Mip-3α was measured by ELISA (R&D systems, Minneapolis, Minn.).
After 6 h, supernatants were collected and analyzed for production of IL-8 or MIP-3α.

HIV-1ADA [9] = test: SEVI-mediated enhancement of HIV-1 ADA infection, CEM-M7 cells, luciferase; format: cell-based
Experimental: Treated virions were then added to 5×10^4 CEM-M7 cells/well in 96-well flat-bottomed tissue culture plates. After 2 h, the medium axis were replaced. Infection was assayed after 48 h by quantifying luciferase expression using the Promega Dual-Luciferase assay and a Beckman Coulter DTX880 plate reader.

A2En cells = test: HIV-1 BaL + SEVI chemokine release from A2En cells (ELISA); format: cell-based, human; details: HIV-1BAL virions + SEVI
Experimental: as §2

SEVI fibrils [10] = target: T1, SEVI fibrils; test: Flow cytometry: binding of SEVI-biotin fibrils to the Jurkat cell surface; format: cell-based; details: 1 h; for MFI (mean fluorescent intensity): Jurkat cells + SEVI-biotin
Experimental: Cells were incubated for 1 h at 37° C., washed, and stained for 1 h with a covalent conjugate of streptavidin and fluorescein isothiocyanate (SA-FITC). Cells were washed and run on an Accuri C6 Flow Cytometer (Accuri Cytometers, Ann Arbor, Mich.). Data were analyzed using FlowJo (TreeStar Inc, Ashland, Oreg.).
After that time, fibrillar structures were examined by ThT fluorescence. ThT changes in fluorescence intensity when intercalated into the β-sheet structure common to amyloid fibrils; therefore, ThT fluorescence serves as a surrogate measure for fibrillar structure of SEVI and for the stability of SEVI fibrils. […] Binding of the fibrils to the cell surface was detected using SA-FITC. […] Surface-bound fibrils were detected with SA-FITC and measured by flow cytometry. Results are shown as percentage of cells with bound fibrils (SA-FITC+) as well as mean fluorescent intensity (MFI).

HIV-1IIIB [11] = details: previously reported value for BTA-EG6; cited from earlier work
HIV-1BaL = test: SEVI-mediated enhancement of HIV-1 BaL infection of PBMCs, p24; format: cell-based
Experimental: Cells were washed at 3 h, and infection was analyzed at day 4 using the HIV-1 p24 antigen capture assay (Advanced Bioscience Laboratory).

HIV-1ADA [12] = test: Virus binding assay (p24), HIV-1 ADA virions; format: cell-based; details: A2En endocervical cells, with SEVI
Experimental: After 90 min, cells were washed to remove any unbound virus, and bound virions were detected using an HIV-1 p24 antigen capture assay (Advanced Bioscience Laboratory).
Surface-bound virions were then measured by p24 ELISA after washing off unbound virus. […] Additionally, this experiment was performed using A2En cells, a primary cell-derived endocervical cell line.

SEVI fibrils [13] = target: T1, SEVI fibrils; test: Example 3: fluorescence assay, Kd of monomer and oligomers 1-5 to SEVI fibrils; format: binding; details: Example 3, Table 2, estimated
Experimental: To test whether binding affinity/avidity is reduced in oligomeric forms, the binding of monomeric and oligomeric forms was assayed to determine the affinity/avidity constants (Kd) for the binding of monomer and oligomers 1-5 to amyloid fibrils formed from SEVI peptides.

Aβ(1-42) fibrils = target: T3, Aβ(1-42) fibrils (Homo sapiens, UniProt P05067); test: Example 4: centrifugation fluorescence binding assay of 1-5 to Aβ(1-42) fibrils
T3 construct: Aβ(1-42) peptide was purchased from GL Biochem (Shanghai, China) Ltd; purchased GL Biochem (Shanghai, China) Ltd; host or cells: synthetic peptide; fibrils grown in PBS at 37 °C for 24 h
T3 sequence (P05067 672-713 limits assumed): as above
Experimental: The binding of BTA monomer oligomer to amyloid fibrils was measured according to the centrifugation assay described by Levine for BTA-1 to Aβ fibrils (Levine et al., Amyloid 12:5-14 (2005)). […] These incubations were performed in duplicate runs and allowed to equilibrate for 12 hours at room temperature. After equilibration, each solution was centrifuged at 16,000 g for 20 minutes at 4° C. The supernatants were separated from the pelleted fibrils, and 220 μL of fresh 5% DMSO/PBS was added to re-suspend the pellets. 100 μl aliquots of each re-suspended pellet was pipetted into a cuvette (ultramicrocuvette, 10-mm light path, Hellma®, Müllheim, Germany), and the fluorescence of the bound molecule was determined at 355 nm excitation and 420 nm emission using a spectrofluorometer (Photon Technology International, Inc., Birmingham, N.J.). Each experiment was repeated at least 3 times. Error bars represent standard deviations from the mean. […] The data were processed using Origin 7.0 (MicroCal Software, Inc., Northampton, Mass.).

SEVI fibrils [14] = target: T1, SEVI fibrils; test: Example 4: centrifugation fluorescence binding assay of 1-5 to SEVI fibrils; details: Table 3, 5% DMSO/PBS
From the text: Each experiment was repeated at least 3 times. Error bars represent standard deviations from the mean.
When the Kd values of compounds 1-5 to SEVI fibrils was examined, a similar trend for improved binding of the oligomeric BTA compounds was observed (Table 3). The greatest improvement in binding as a function of increasing valence number in the oligomer was observed when comparing the monomer to dimer and the tetramer to pentamer.

HIV-IIIB = test: Screening hits: SEVI-mediated enhancement of HIV-IIIB infection, CEM-M7 cells; format: cell-based, HIV-1; details: 50 μM, 15 μg/mL SEVI, 48 hours
Experimental: Each of the selected compound shown below was incubated at 50 μM with 15 μg/mL of SEVI for 10 minutes. HIV-IIIB was then added and incubated for an additional 10 minutes prior to being added to CEM-M7 cells. After two hours the inoculum was removed and the cells washed with PBS. The cells were incubated for an additional 48 hours and then HIV infection was assessed by luciferase activity. Luciferase activity is graphed for each of the selected compounds in FIG. 29.
A high throughput assay was established to identify SEVI-binding compounds.

[15] = Table 3, 5% DMSO/PBS, read-out: Kd (nM) to Aβ(1-42) fibrils
[16] = heparin (100 μg/ml) positive control

Molecule: Cc1ccc2nc(-c3ccc(NCCOCCOCCOCCO)cc3)sc2c1 [BTA-EG4]
- Inhibition of semen-mediated enhancement of HIV infection (luciferase) (HIV-1IIIB [1]): capable of inhibiting semen mediated enhancement of HIV infection
- Cell viability (Alamar Blue) [2]: did not affect the cell viability
- Inhibition of SEVI-mediated enhancement of HIV-1 infection (luciferase) (HIV-1IIIB [3]): decreasing levels of luciferase activity
- Inhibition of SEVI-enhanced binding of HIV-1 virions to the cell surface (p24 ELISA) (HIV-1 IIIB): decrease in HIV-1 binding to the cells
- Binding to SEVI fibrils, displacement of FITC-heparin (decrease of polarization) (SEVI fibrils [4]): capable of binding SEVI
- Cytokine production (IL-1b, MIP-3a, TNF-a) by ELISA [5]: do not induce cytokine production

Molecule: Cc1ccc2nc(-c3ccc(NCCOCCOCCOCCOCCOCCO)cc3)sc2c1 [BTA-EG6]
- Inhibition of semen-mediated enhancement of HIV infection (luciferase) (HIV-1IIIB [1]): capable of inhibiting semen mediated enhancement of HIV infection; also recorded: efficiently inhibited the semen mediated enhancement of HIV-1 infection
- Cell viability (Alamar Blue) [2]: did not affect the cell viability
- Cell viability (resazurin cytotoxicity assay) [2]: did not have any effects on cell viability
- Inhibition of SEVI-mediated enhancement of HIV-1 infection (luciferase) (HIV-1IIIB [3]): decreasing levels of luciferase activity; also recorded: reducing infectivity nearly back to baseline levels
- Effect on infectivity of HIV alone (HIV-1IIIB [3]; CEM-M7, absence of SEVI): no effect on the infectivity of HIV virus alone
- Effect on binding of HIV virions to the cell surface (HIV-1 IIIB; absence of SEVI): no effect on the binding of HIV virions to the cell surface
- Inhibition of SEVI-enhanced binding of HIV-1 virions to the cell surface (p24 ELISA) (HIV-1 IIIB): decrease in HIV-1 binding to the cells
- Inhibition of SEVI-enhanced binding of HIV-1 virions to the cell surface (p24 ELISA) (HIV-1 IIIB; listed as BTAEG6): efficiently abrogated
- Binding to SEVI fibrils, displacement of FITC-heparin (decrease of polarization) (SEVI fibrils [4]): capable of binding SEVI; also recorded: able to displace fluorescent heparin from the SEVI fibrils in a dose-dependent fashion
- Effect on stability of preformed SEVI fibrils (ThT fluorescence) (SEVI fibrils [6]): no effect on fibrillar stability
- Inhibition of semen-mediated enhancement of HIV infection (luciferase) (HIV-1ADA [7]): this effect extended to infection with an R5 virus
- Kd [8]: 111 ± 32 nM
- Effect on semen-stimulated IL-8 and MIP-3α production (SiHa cells): no inhibitory effect on semen-stimulated chemokine production
- Inhibition of SEVI-mediated enhancement of HIV-1 infection (luciferase) (HIV-1ADA [9]; CEM-M7, 15 μg/ml SEVI): significant dose-dependent inhibition
- Effect on infectivity of HIV alone (HIV-1ADA [9]; CEM-M7, absence of SEVI): No effect on the infectivity of HIV-1ADA was observed
- Cytokine production (IL-1b, MIP-3a, TNF-a) by ELISA [5]: do not induce cytokine production
- Inhibition of SEVI-increased IL-8 release (A2En cells): able to inhibit this release
- SA-FITC+ (%), percentage of cells with bound fibrils (SEVI fibrils [10]; BTA-EG6 high (27 μg/ml)): 21.2%
- SA-FITC+ (%), percentage of cells with bound fibrils (SEVI fibrils [10]; BTA-EG6 low (5.5 μg/ml)): 36.6%
- MFI (mean fluorescent intensity) (SEVI fibrils [10]; BTA-EG6 high (27 μg/ml)): 38.7
- MFI (mean fluorescent intensity) (SEVI fibrils [10]; BTA-EG6 low (5.5 μg/ml)): 95.3
- Concentration required to completely neutralize the effects of SEVI on HIV-1 infection (HIV-1IIIB [11]): 44 µM
- Inhibition of SEVI-mediated enhancement of HIV-1 infection (p24) (HIV-1BaL; HIV-1BAL, 15 μg/ml SEVI): able to inhibit SEVI-mediated enhancement of HIV-1 infection in PBMCs
- Effect on infectivity of HIV alone (HIV-1BaL; HIV-1BaL, absence of SEVI): no effect on the infectivity of HIV-1BaL
- Inhibition of SEVI-enhanced binding of HIV-1 virions to the cell surface (p24 ELISA) (HIV-1ADA [12]): this effect was inhibited

- Kd (SEVI fibrils [13]): 107 ± 16 nM
- Kd (Aβ(1-42) fibrils; [15]): 235 ± 75 nM
- Kd (SEVI fibrils [14]): 236 ± 90 nM
Molecule: CCNC(=O)CCOCCOCCOCCOCCNC(=O)CCNc1ccc(-c2nc3ccc(C)cc3s2)cc1 [Compound 1, BTA Monomer]

Molecule: Cc1ccc2nc(-c3ccc(NCCC(=O)NCCOCCOCCOCCOCCC(=O)NCCNC(=O)CCOCCOCCOCCOCCNC(=O)CCNc4ccc(-c5nc6ccc(C)cc6s5)cc4)cc3)sc2c1 [Compound 2, BTA Dimer]
- Kd (SEVI fibrils [13]): 75 ± 10 nM
- Fold lower Kd than monomer 1, Aβ(1-42) fibrils (Aβ(1-42) fibrils): 8 fold
- Kd (Aβ(1-42) fibrils): 29 ± 4 nM
- Kd (SEVI fibrils [14]): 69 ± 1 nM

- Kd (SEVI fibrils [13]): 40 ± 6 nM
- Kd (Aβ(1-42) fibrils; [15]): 26 ± 6 nM
- Kd (SEVI fibrils [14]): 40 ± 6 nM
Molecule: Cc1ccc2nc(-c3ccc(NCCC(=O)NCCOCCOCCOCCOCCC(=O)NCCN(CCNC(=O)CCOCCOCCOCCOCCNC(=O)CCNc4ccc(-c5nc6ccc(C)cc6s5)cc4)CCNC(=O)CCOCCOCCOCCOCCNC(=O)CCNc4ccc(-c5nc6ccc(C)cc6s5)cc4)cc3)sc2c1 [Compound 3, BTA Trimer]

- Kd (SEVI fibrils [13]): 56 ± 6 nM
- Kd (Aβ(1-42) fibrils; [15]): 20 ± 5 nM
- Kd (SEVI fibrils [14]): 59 ± 6 nM
Molecule: CCNC(=O)C(CCCCNC(=O)CCOCCOCCOCCOCCNC(=O)CCNc1ccc(-c2nc3ccc(C)cc3s2)cc1)NC(=O)C(CCCCNC(=O)CCOCCOCCOCCOCCNC(=O)CCNc1ccc(-c2nc3ccc(C)cc3s2)cc1)NC(=O)C(CCCCNC(=O)CCOCCOCCOCCOCCNC(=O)CCNc1ccc(-c2nc3ccc(C)cc3s2)cc1)NC(=O)CCOCCOCCOCCOCCNC(=O)CCNc1ccc(-c2nc3ccc(C)cc3s2)cc1 (stereo not shown) [Compound 4, BTA Tetramer]

Molecule: COc1ccc(Cl)cc1-c1ccc(-c2c(C#N)c(N)n3c(nc4ccccc43)c2C#N)o1 [Compound 8E2]
- Inhibition of SEVI-mediated enhancement of HIV infection (luciferase) (HIV-IIIB): inhibited SEVI-mediated enhancement of HIV infection

Molecule: COc1ccc2cc3[n+](cc2c1OC)CCc1cc2c(cc1-3)OCO2 [Compound 11A5]
- Inhibition of SEVI-mediated enhancement of HIV infection (luciferase) (HIV-IIIB): inhibited SEVI-mediated enhancement of HIV infection

- Binding to SEVI fibrils, displacement of FITC-heparin (decrease of polarization) (SEVI fibrils [4]): the polarization decreased
- SA-FITC+ (%), percentage of cells with bound fibrils (SEVI fibrils [10]; [16]): 31.7%
- MFI (mean fluorescent intensity) (SEVI fibrils [10]; [16]): 376
Molecule: heparin [reference compound]
